Measurements published in PMC6118079 (Iranian Journal of Basic Medical Sciences, 2018).

System: krait snake venom acetylcholinesterase (AChE)
Type: biochemical, Bungarus sindanus
Settings: no extract (control); 0.5-1 mM substrate, 50 mM phosphate pH 7.4, 37 °C; crude venom as enzyme source

## CC(=O)SCC[N+](C)(C)C [acetylthiocholine]
  Km: 160 µM
